Test results reported in ChEMBL document CHEMBL1131172 (J Med Chem, 1998).

Experiments:
[1] = target: T1, Bifunctional dihydrofolate reductase-thymidylate synthase (Toxoplasma gondii, UniProt Q07422)
T1 sequence (Q07422 whole entry): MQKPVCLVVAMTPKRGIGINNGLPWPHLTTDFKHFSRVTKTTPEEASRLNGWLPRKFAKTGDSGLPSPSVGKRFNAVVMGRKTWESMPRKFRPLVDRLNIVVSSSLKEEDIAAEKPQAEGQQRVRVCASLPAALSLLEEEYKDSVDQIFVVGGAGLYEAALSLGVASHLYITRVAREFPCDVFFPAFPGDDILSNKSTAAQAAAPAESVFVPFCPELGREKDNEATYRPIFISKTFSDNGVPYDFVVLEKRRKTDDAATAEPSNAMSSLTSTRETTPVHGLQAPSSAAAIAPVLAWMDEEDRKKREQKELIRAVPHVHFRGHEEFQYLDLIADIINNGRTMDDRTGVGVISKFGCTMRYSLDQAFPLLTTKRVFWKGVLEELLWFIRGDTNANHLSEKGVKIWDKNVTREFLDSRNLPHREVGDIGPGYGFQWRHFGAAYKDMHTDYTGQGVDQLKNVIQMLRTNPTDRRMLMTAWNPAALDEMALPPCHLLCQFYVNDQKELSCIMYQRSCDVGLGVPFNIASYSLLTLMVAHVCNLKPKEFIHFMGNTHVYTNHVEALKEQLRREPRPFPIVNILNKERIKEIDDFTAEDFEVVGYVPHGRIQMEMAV
Description: Inhibitory activity against dihydrofolate reductase (DHFR) from Toxoplasma gondii

Dihydrofolate reductase [2] = target: T2, Dihydrofolate reductase (Rattus norvegicus, UniProt Q920D2)
T2 sequence (Q920D2 whole entry): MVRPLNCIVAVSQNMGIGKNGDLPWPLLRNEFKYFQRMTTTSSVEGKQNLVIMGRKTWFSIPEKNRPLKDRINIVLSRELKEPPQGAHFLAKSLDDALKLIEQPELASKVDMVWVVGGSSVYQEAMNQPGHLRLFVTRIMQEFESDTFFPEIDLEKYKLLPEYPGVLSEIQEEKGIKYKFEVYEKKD
Description: Inhibitory activity against dihydrofolate reductase (DHFR) from rat liver

UO-31 [3] = experiment: inhibition of the growth of renal cancer(UO-31) cell line; assay type: functional; conditions: Homo sapiens
NCI-H522 = experiment: inhibition of the growth of non-small-cell lung cancer (NCI-H522) cell line; assay type: functional; conditions: Homo sapiens
SF-539 = experiment: inhibition of the growth of CNS cancer(SF-539) cell line; assay type: functional; conditions: Homo sapiens
MOLT-4 = experiment: inhibition of the growth of leukemia (MOLT-4) cell line; assay type: functional; conditions: Homo sapiens
HCT-116 = experiment: inhibition of the growth of colon cancer(HCT116) cell line; assay type: functional; conditions: Homo sapiens
SNB-19 = experiment: inhibition of the growth of CNS cancer(SNB-19) cell line; assay type: functional; conditions: Homo sapiens
NCI/ADR-RES = experiment: inhibition of the growth of breast cancer (MCF7/ADR-RES) cell line; assay type: functional; conditions: Homo sapiens
NCI-H322M = experiment: inhibition of the growth of non-small-cell lung cancer (NCI-H322M) cell line; assay type: functional; conditions: Homo sapiens
MCF7 = experiment: inhibition of the growth of breast cancer (MCF-7) cell line; assay type: functional; conditions: Homo sapiens
NCI-H460 = experiment: inhibition of the growth of non-small-cell lung cancer (NCI-H460) cell line; assay type: functional; conditions: Homo sapiens
CAKI-1 = experiment: inhibition of the growth of renal cancer(CAKI-1) cell line; assay type: functional; conditions: Homo sapiens
KM12 = experiment: inhibition of the growth of colon cancer(KM-12) cell line; assay type: functional; conditions: Homo sapiens
OVCAR-8 = experiment: inhibition of the growth of ovarian cancer(OVCAR-8) cell line; assay type: functional; conditions: Homo sapiens
SF-295 = experiment: inhibition of the growth of CNS cancer(SF-295) cell line; assay type: functional; conditions: Homo sapiens
DU-145 = experiment: inhibition of the growth of prostate cancer(DU-145) cell line; assay type: functional; conditions: Homo sapiens
IGROV-1 = experiment: inhibition of the growth of ovarian cancer(IGROVI) cell line; assay type: functional; conditions: Homo sapiens
786-0 = experiment: inhibition of the growth of renal cancer(786-0) cell line; assay type: functional; conditions: Homo sapiens
SF-268 = experiment: inhibition of the growth of CNS cancer(SF-268) cell line; assay type: functional; conditions: Homo sapiens
M14 = experiment: inhibition of the growth of melanoma cancer (M14) cell line; assay type: functional; conditions: Homo sapiens
Dihydrofolate reductase [4] = target: T3, Dihydrofolate reductase (Pneumocystis carinii, UniProt P16184)
T3 sequence (P16184 whole entry): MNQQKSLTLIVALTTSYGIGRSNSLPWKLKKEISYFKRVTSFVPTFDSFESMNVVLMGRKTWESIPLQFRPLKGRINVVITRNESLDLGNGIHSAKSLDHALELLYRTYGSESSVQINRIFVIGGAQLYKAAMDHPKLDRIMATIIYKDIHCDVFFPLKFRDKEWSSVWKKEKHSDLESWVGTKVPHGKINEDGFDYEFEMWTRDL
Description: Inhibitory activity against dihydrofolate reductase (DHFR) from Pneumocystis carinii

UO-31 [5] = experiment: Inhibition of the growth of renal cancer(UO-31) cell line at 0.01 uM; assay type: functional; conditions: Homo sapiens
SR = experiment: inhibition of the growth of leukemia(SR) cell line; assay type: functional; conditions: Homo sapiens
MDA-MB-435 = experiment: inhibition of the growth of breast cancer (MDA-MB-435) cell line; assay type: functional; conditions: Homo sapiens
SK-MEL-5 = experiment: inhibition of the growth of melanoma cancer (SK-MEL-5) cell line; assay type: functional; conditions: Homo sapiens
HCT-15 = experiment: inhibition of the growth of colon cancer(HCT-15) cell line; assay type: functional; conditions: Homo sapiens
NCI-H23 = experiment: inhibition of the growth of non-small-cell lung cancer (NCI-H23) cell line; assay type: functional; conditions: Homo sapiens
A549 = experiment: inhibition of the growth of non-small-cell lung cancer (A549/ATCC) cell line; assay type: functional; conditions: Homo sapiens
MDA-N = experiment: inhibition of the growth of breast cancer(MDA-N) cell line; assay type: functional; conditions: Homo sapiens
RPMI-8226 = experiment: inhibition of the growth of leukemia (RPMI-8226) cell line; assay type: functional; conditions: Homo sapiens

Question: Which results are given for `Nc1nc(N)c2nc(Nc3ccc(Cl)cc3)ccc2n1`?
Answer: IC50 [1]: 0.83 µM; IC50 (Dihydrofolate reductase [2]): 0.82 µM

Question: Which GI50 (UO-31 [3]) does the source give for `Nc1nc(N)c2nc(Nc3ccccc3)ccc2n1` here?
Answer: Its GI50 is < 0.01 µM.

Question: What about the GI50 (NCI-H522) of the same molecule?
Answer: Its GI50 is 4.26 µM.

Question: And the GI50 (SF-539)?
Answer: The GI50 was 2.95 µM.

Question: And the GI50 (MOLT-4)?
Answer: The GI50 was 2.18 µM.

Question: What about the GI50 (HCT-116) of the same molecule?
Answer: Its GI50 is 0.51 µM.

Question: And the GI50 (SNB-19)?
Answer: The GI50 was 1.57 µM.

Question: And the GI50 (NCI/ADR-RES)?
Answer: The GI50 was 2.69 µM.

Question: And the GI50 (NCI-H322M)?
Answer: Its GI50 is 8.02 µM.

Question: What about the GI50 (MCF7) of the same molecule?
Answer: The GI50 was 6.45 µM.

Question: What about the GI50 (NCI-H460) of the same molecule?
Answer: Its GI50 is 0.43 µM.

Question: And the GI50 (CAKI-1)?
Answer: The GI50 was 3.58 µM.

Question: And the GI50 (KM12)?
Answer: The GI50 was 5.94 µM.

Question: And the GI50 (OVCAR-8)?
Answer: Its GI50 is 0.99 µM.

Question: What about the GI50 (SF-295) of the same molecule?
Answer: The GI50 was 1.43 µM.

Question: What about the GI50 (DU-145) of the same molecule?
Answer: Its GI50 is 4.99 µM.

Question: What about the IC50 [1] of the same molecule?
Answer: The IC50 was 0.3 µM.

Question: What about the GI50 (IGROV-1) of the same molecule?
Answer: The GI50 was 3.27 µM.

Question: And the GI50 (786-0)?
Answer: Its GI50 is 0.89 µM.

Question: What about the GI50 (SF-268) of the same molecule?
Answer: Its GI50 is 6.05 µM.

Question: And the GI50 (M14)?
Answer: The GI50 was 1.07 µM.

Question: And the IC50 (Dihydrofolate reductase [4])?
Answer: The IC50 was 8.3 µM.

Question: What about the inhibition at 0.01 µM (UO-31 [5]) of the same molecule?
Answer: The inhibition at 0.01 µM was 57%.

Question: What about the GI50 (SR) of the same molecule?
Answer: Its GI50 is 2.91 µM.

Question: What about the IC50 (Dihydrofolate reductase [2]) of the same molecule?
Answer: The IC50 was 0.43 µM.

Question: And the GI50 (MDA-MB-435)?
Answer: The GI50 was 0.57 µM.

Question: What about the GI50 (SK-MEL-5) of the same molecule?
Answer: Its GI50 is 0.83 µM.

Question: What about the GI50 (HCT-15) of the same molecule?
Answer: Its GI50 is 0.85 µM.

Question: And the GI50 (NCI-H23)?
Answer: Its GI50 is 3.67 µM.

Question: And the GI50 (A549)?
Answer: The GI50 was 0.64 µM.

Question: And the GI50 (MDA-N)?
Answer: Its GI50 is 0.68 µM.

Question: What about the GI50 (RPMI-8226) of the same molecule?
Answer: The GI50 was 0.67 µM.

Question: With `COc1cc(Nc2ccc3nc(N)nc(N)c3n2)cc(OC)c1OC` as the molecule, how does the IC50 [1] read?
Answer: The IC50 was 2.4 µM.

Question: What about the IC50 (Dihydrofolate reductase [4]) of the same molecule?
Answer: The IC50 was 25.9 µM.

Question: And the IC50 (Dihydrofolate reductase [2])?
Answer: Its IC50 is 3.2 µM.

Question: `COc1ccc(S(=O)(=O)c2ccc3nc(N)nc(N)c3n2)cc1OC` was tested. Which IC50 [1] did it give?
Answer: The IC50 was 0.94 µM.

Question: And the IC50 (Dihydrofolate reductase [4])?
Answer: The IC50 was 2.7 µM.

Question: What about the IC50 (Dihydrofolate reductase [2]) of the same molecule?
Answer: Its IC50 is 0.88 µM.

Question: How did the IC50 [1] turn out when `COc1ccccc1Nc1ccc2nc(N)nc(N)c2n1` was run?
Answer: The IC50 was 0.46 µM.

Question: What about the IC50 (Dihydrofolate reductase [2]) of the same molecule?
Answer: Its IC50 is 0.26 µM.
